Source: patent US7250397B2, “Antiarrhythmic peptides” (Zealand Pharma A/S, priority 2000, dated 2007)
[ ]: non-standard residue; d: D form. Hyp = O=C(O)[C@@H]1C[C@@H](O)CN1

Tests used:
human osteoblastic cells = assay: Lucifer Yellow dye transfer in DDT-treated human osteoblast cells; format: cell-based; conditions: DDT 13 μM, 60 minutes; control 14.5 cells
Procedure: Human osteoblast cells: Cells were isolated from human bone marrow obtained by puncture of the posterior iliac spine of healthy volunteers (aged 20-36): 10-15 ml marrow material was collected in 15 ml PBS+Ca, Mg (Life Technologies, Cat.No. 14040) with 100 U/ml Heparin (Sigma, Cat.No. H-3149). The mononuclear fraction of the marrow was isolated on a Lymphoprep gradient (Nycomed Pharma, Cat.No. 1001967), by centrifugation at 2200 rpm for 30 min. After harvesting, the mononuclear fraction was washed once with culture medium and centrifuged at 1800 rpm for 10 min. Subsequently cells were counted and plated in culture medium at 8×10^6 cells/100 mm dish. hOB medium (all reagents obtained from Life Technologies): MEM w/o Phenol Red w/Glutamax (Cat.No. 041-93013) supplemented with 10% heat inactivated fetal calf serum (Cat.No. 10106) and 0.1% Penicillin/Streptomycin (Cat.No. 15140). Medium was changed the following day and the cells were cultured at 37° C. in 5%CO2 with medium change every 7 days. After 3-4 weeks of culture the cells had reached 70% confluence. The medium was then supplemented with 100 nM Dexamethasone (Sigma, Cat.No. D-4902) for 7 days. […]
The dye Lucifer Yellow (LY) was injected into one single human osteoblast in a monolayer. After 30 seconds, the number of cells containing dye was assessed. […]

[1] = In vitro stability test in rabbit plasma (heparin); format: in vitro ADME; conditions: 37° C., 0.1 mg/ml, mean n=3
Procedure: (§1) The stability of peptides is analysed in different plasma and serum types. The peptides are incubated at 37° C. in plasma and samples taken at approx. 9 regular intervals between t=0 and t=156 min are analysed by HPLC.
(§2) This is done by subsequent injections of the drug, plasma, and a co-injection with the drug and the plasma, followed by optimisation of the LC method parameters until a satisfactory separation is obtained. Three parallel experiments are performed for each plasma type:100 μl of peptide is mixed with 900 μl plasma at t=0 and incubated at 37° C. (drug-plasma mixture conc. 0.1 mg/ml). Samples of 100 μl of the drug-plasma mixture are removed at appropriate intervals and the degradation stopped by precipitation of the sample with 10 μl MeCN:TFA 50:50 v/v. A control plasma sample without the drug treated in the same manner is also taken. The plasma samples are centrifuged for 15 min. at 12,000 rpm (Eppendorf centrifuge) at ambient temperature. The resulting supernatant solution is transferred to 300 μl HP autosamler vials and analyzed by HPLC. […] Temp.: 40° C. • Solvent: MeCN/MQW/TFA (0.1%). Run time: 25 min. • Inj.vol.:15 μL. […]
(§3) The samples are analyzed in the following order: blank, the peptide at 0.1 mg/mL, the plasma without the peptide, the three parallel samples for t=0, the three parallel samples for t=5 min. the three parallel samples for t=10 min. etc. […]

[2] = In vitro stability test in human serum; format: in vitro ADME; conditions: 37° C., 0.1 mg/ml, mean n=3
Procedure: as §1, §2, §3

| Compound | median number of cells containing dye (human osteoblastic cells) | T1/2 [1] | T1/2 [2] |
| --- | --- | --- | --- |
| Clc1ccc(C(c2ccc(Cl)cc2)C(Cl)(Cl)Cl)cc1 [DDT, 1,1-bis(p-chlorophenyl)-2,2,2-trichlorethane] | 7 cells | – | – |
| H-PYNGAG[Hyp]-NH2 [Compound 27] | – | 3.8 h | 3.1 h |
